Measured values as given in patent publication US20170045513A1, “METHODS OF DIAGNOSING CELIAC DISEASE USING IP-10” (ImmusanT, Inc., priority 2014, published 2017).
Non-standard residues stand in square brackets, D forms with d. pGlu = O=C1CC[C@@H](C(=O)O)N1

Legend:
Format in all cases: cell-based, human
[1] = test system: gluten-reactive T cells; assay: 96-well plate whole blood cytokine release, IFNγ by MAGPIX multiplex bead assay; details: for Percent of maximal response to individual gluten peptides, IFNg: after oral gluten challenge; for IFNγ WB MAGPIX % max Mean: n = 8, blood after oral gluten challenge, individual peptides 5 μM (Peptide 2* of P14, Pepscan: 10 μg/mL (5.45 μM))
[2] = test system: gluten-reactive T cells; assay: Overnight IFNγ ELISpot assay with fresh PBMC; details: for Percent of maximal response to individual gluten peptides, ELISp: after oral gluten challenge; for IFNγ ELISpot % max Mean: n = 5, blood after oral gluten challenge, individual peptides 5 μM (Peptide 2* of P14, Pepscan: 10 μg/mL (5.45 μM))
Method in brief: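 Read-out is IFNγ spot-forming units per well, counted automatically after overnight culture of fresh PBMC (0.4 million/well) with single peptides (duplicate) or pools (triplicate). Donors: HLA-DQ2.5+ celiac patients on gluten-free diet, bled pre- and day 6 after 3-day oral gluten challenge.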

[3] = test system: gluten-reactive T cells; assay: Cytokine release assays taken together (IFNγ ELISpot, whole blood IFNγ and IP-10, in-tube IFNγ ELISA); details: for cytokine release / immunogenicity of individual peptide: HLA-DQ2.5+ celiac disease subjects after gluten challenge
Method in brief: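 Whole blood with peptides (P3 0.05-50 μg/mL; P13/P14 0.025-25 μM; […]), 24 h, 37 °C; plasma IFNγ/IP-10 by multiplex beads. Tube assay: 1 mL blood with P3 or CEF, 24 h, plasma IFNγ ELISA; elevated if >7.2 pg/mL above medium tube and SI >1.25. ELISpot overnight on fresh PBMC.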

[4] = blood collected after oral gluten challenge

| Substance | Percent of maximal response to individual gluten peptides, IFNg ([1]; Subject 2, Max. 116 pg/mL) | Percent of maximal response to individual gluten peptides, IFNg ([1]; Subject 3, Max. 799 pg/mL) | Percent of maximal response to individual gluten peptides, IFNg ([1]; Subject 4, Max. 136 pg/mL) | Percent of maximal response to individual gluten peptides, IFNg ([1]; Subject 6, Max. 72 pg/mL) | Percent of maximal response to individual gluten peptides, IFNg ([1]; Subject 7, Max. 17 pg/mL) | Percent of maximal response to individual gluten peptides, IFNg ([1]; Subject 8, Max. 47 pg/mL) | Percent of maximal response to individual gluten peptides, IFNg ([1]; Subject 9, Max. 67 pg/mL) | Percent of maximal response to individual gluten peptides, IFNg ([1]; Subject 10, Max. 229 pg/mL) | IFNγ WB MAGPIX % max Mean [1] | Percent of maximal response to individual gluten peptides, ELISp ([2]; Subject 3, Max. 18 SFU) | Percent of maximal response to individual gluten peptides, ELISp ([2]; Subject 4, Max. 36 SFU) | Percent of maximal response to individual gluten peptides, ELISp ([2]; Subject 6, Max. 16 SFU) | Percent of maximal response to individual gluten peptides, ELISp ([2]; Subject 8, Max. 17 SFU) | Percent of maximal response to individual gluten peptides, ELISp ([2]; Subject 10, Max. 11 SFU) | IFNγ ELISpot % max Mean [2] [% max] | activity relative to Peptide 14 in the cytokine release assays [3, 4] | cytokine release / immunogenicity of individual peptide [3] | rank of activity among individual gluten peptides [3, 4] |
| --- | --- | --- | --- | --- | --- | --- | --- | --- | --- | --- | --- | --- | --- | --- | --- | --- | --- | --- |
| (pE)QPFPQPEQPTPIQPEQP-amide ([pGlu]QPFPQPEQPTPIQPEQP-NH2; SMILES CC[C@H](C)[C@H](NC(=O)[C@@H]1CCCN1C(=O)[C@@H](NC(=O)[C@@H]1CCCN1C(=O)[C@H](CCC(N)=O)NC(=O)[C@H](CCC(=O)O)NC(=O)[C@@H]1CCCN1C(=O)[C@H](CCC(N)=O)NC(=O)[C@@H]1CCCN1C(=O)[C@H](Cc1ccccc1)NC(=O)[C@@H]1CCCN1C(=O)[C@H](CCC(N)=O)NC(=O)[C@@H]1CCC(=O)N1)[C@@H](C)O)C(=O)N[C@@H](CCC(N)=O)C(=O)N1CCC[C@H]1C(=O)N[C@@H](CCC(=O)O)C(=O)N[C@@H](CCC(N)=O)C(=O)N1CCC[C@H]1C(N)=O) [Peptide 5] | 39 % of max | 5 % of max | 13 % of max | 1 % of max | 6 % of max | 0 % of max | 0 % of max | 27 % of max | 11 (11) % max | 17 % of max | 19 % of max | 0 % of max | 18 % of max | 55 % of max | 22 | from one-half to one-eighth as active as Peptide 14 |  |  |
| (pE)QPPFSEQEQPVLPQ-amide (N-terminal pyroglutamate; C-terminal amide) [Peptide 13] | 47 % of max | 3 % of max | 0 % of max | 5 % of max | 1 % of max | 0 % of max | 0 % of max | 0 % of max | 7 % max | 6 % of max | 6 % of max | 0 % of max | 0 % of max | 0 % of max | 2 |  | weak or not distinguishable from medium alone |  |
| (pE)LQPFPQPELPYPQPQ-amide ([pGlu]LQPFPQPELPYPQPQ-NH2; SMILES CC(C)C[C@H](NC(=O)[C@@H]1CCC(=O)N1)C(=O)N[C@@H](CCC(N)=O)C(=O)N1CCC[C@H]1C(=O)N[C@@H](Cc1ccccc1)C(=O)N1CCC[C@H]1C(=O)N[C@@H](CCC(N)=O)C(=O)N1CCC[C@H]1C(=O)N[C@@H](CCC(=O)O)C(=O)N[C@@H](CC(C)C)C(=O)N1CCC[C@H]1C(=O)N[C@@H](Cc1ccc(O)cc1)C(=O)N1CCC[C@H]1C(=O)N[C@@H](CCC(N)=O)C(=O)N1CCC[C@H]1C(=O)N[C@@H](CCC(N)=O)C(N)=O) [Peptide 1] | 100 % of max | 14 % of max | 26 % of max | 25 % of max | 43 % of max | 6 % of max | 43 % of max | 7 % of max | 33 % max | 11 % of max | 22 % of max | 25 % of max | 0 % of max | 9 % of max | 13 | no more than two-thirds as active as Peptide 14 |  | the most active of this group of related peptides |
| (pE)SGEGSFQPSQENPQ-amide ([pGlu]SGEGSFQPSQENPQ-NH2; SMILES NC(=O)CC[C@H](NC(=O)[C@@H]1CCCN1C(=O)[C@H](CC(N)=O)NC(=O)[C@H](CCC(=O)O)NC(=O)[C@H](CCC(N)=O)NC(=O)[C@H](CO)NC(=O)[C@@H]1CCCN1C(=O)[C@H](CCC(N)=O)NC(=O)[C@H](Cc1ccccc1)NC(=O)[C@H](CO)NC(=O)CNC(=O)[C@H](CCC(=O)O)NC(=O)CNC(=O)[C@H](CO)NC(=O)[C@@H]1CCC(=O)N1)C(N)=O) [Peptide 9] | 19 % of max | 0 % of max | 0 % of max | 0 % of max | 0 % of max | 0 % of max | 0 % of max | 0 % of max | 2 % max | 0 % of max | 0 % of max | 0 % of max | 6 % of max | 0 % of max | 1 |  | weak or not distinguishable from medium alone |  |
| (pE)QPFPQPEQPIPVQPEQS-amide ([pGlu]QPFPQPEQPIPVQPEQS-NH2; SMILES CC[C@H](C)[C@H](NC(=O)[C@@H]1CCCN1C(=O)[C@H](CCC(N)=O)NC(=O)[C@H](CCC(=O)O)NC(=O)[C@@H]1CCCN1C(=O)[C@H](CCC(N)=O)NC(=O)[C@@H]1CCCN1C(=O)[C@H](Cc1ccccc1)NC(=O)[C@@H]1CCCN1C(=O)[C@H](CCC(N)=O)NC(=O)[C@@H]1CCC(=O)N1)C(=O)N1CCC[C@H]1C(=O)N[C@H](C(=O)N[C@@H](CCC(N)=O)C(=O)N1CCC[C@H]1C(=O)N[C@@H](CCC(=O)O)C(=O)N[C@@H](CCC(N)=O)C(=O)N[C@@H](CO)C(N)=O)C(C)C) [Peptide 4] | 33 % of max | 13 % of max | 24 % of max | 1 % of max | 1 % of max | 9 % of max | 29 % of max | 11 % of max | 15 % max | 17 % of max | 44 % of max | 19 % of max | 12 % of max | 27 % of max | 24 | from one-half to one-eighth as active as Peptide 14 |  |  |
